Measurements from PubChem BioAssay (NCI).
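Test compounds were applied to cells in 96-well plates for 48 hours at 5 doses. Here, GI50 denotes the concentration required for 50% inhibition of growth. TGI denotes the concentration required for complete inhibition of growth.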

Tests used:
Assay in all cases: DTP human tumour cell line panel, 48 h; in the data active = GI50 below about 0.43 µM; inactive = the rest
[1] = tested on: 786-0 renal
[2] = tested on: A498 renal
[3] = tested on: A549 NSCLC
[4] = tested on: ACHN renal
[5] = tested on: BT-549 breast
[6] = tested on: CAKI-1 renal
[7] = tested on: CCRF-CEM leukemia
[8] = tested on: COLO 205 colon
[9] = tested on: DU-145 prostate
[10] = tested on: EKVX NSCLC
[11] = tested on: HCC-2998 colon
[12] = tested on: HCT-116 colon
[13] = tested on: HCT-15 colon
[14] = tested on: HL-60(TB) leukemia
[15] = tested on: HOP-62 NSCLC
[16] = tested on: HOP-92 NSCLC
[17] = tested on: HS 578T breast
[18] = tested on: HT29 colon
[19] = tested on: IGROV1 ovarian
[20] = tested on: K-562 leukemia
[21] = tested on: KM12 colon
[22] = tested on: LOX IMVI melanoma
[23] = tested on: M14 melanoma
[24] = tested on: MALME-3M melanoma
[25] = tested on: MCF7 breast
[26] = tested on: MDA-MB-231 breast
[27] = tested on: MDA-MB-435
[28] = tested on: MOLT-4 leukemia
[29] = tested on: NCI-H226 lung
[30] = tested on: NCI-H460 lung
[31] = tested on: NCI-H522 lung
[32] = tested on: NCI/ADR-RES ovarian
[33] = tested on: OVCAR-3 ovarian
[34] = tested on: OVCAR-4 ovarian
[35] = tested on: OVCAR-5 ovarian
[36] = tested on: OVCAR-8 ovarian
[37] = tested on: PC-3 prostate
[38] = tested on: RPMI-8226 leukemia
[39] = tested on: RXF 393 renal
[40] = tested on: SF-268 CNS
[41] = tested on: SF-295 CNS
[42] = tested on: SF-539 CNS
[43] = tested on: SK-MEL-2 melanoma
[44] = tested on: SK-MEL-28 melanoma
[45] = tested on: SK-MEL-5 melanoma
[46] = tested on: SK-OV-3 ovarian
[47] = tested on: SN12C renal
[48] = tested on: SNB-19 CNS
[49] = tested on: SNB-75 CNS
[50] = tested on: SR leukemia
[51] = tested on: SW-620 colon
[52] = tested on: T-47D breast
[53] = tested on: TK-10 renal
[54] = tested on: U251 CNS
[55] = tested on: UACC-257 melanoma
[56] = tested on: UACC-62 melanoma
[57] = tested on: UO-31 renal

CCNC(=O)N1CCc2cc(OC)c(OCCc3ccc(OC)cc3)cc2C1c1ccc(OC)cc1C (stereo unspecified)
3340 nM: TGI [31]
> 22200 nM: TGI [2]
> 37500 nM: TGI [41]
> 27200 nM: TGI [49]
4190 nM: TGI [39]
9660 nM: TGI [18]
5230 nM: TGI [14]
4890 nM: TGI [38]
inactive: GI50 [1] 715 nM | GI50 [3] 1390 nM | GI50 [4] 755 nM | GI50 [5] 1360 nM | GI50 [6] 1150 nM | GI50 [7] 432 nM | GI50 [8] 1070 nM | GI50 [9] 1330 nM | GI50 [10] 5640 nM | GI50 [11] 1950 nM | GI50 [14] 583 nM | GI50 [15] 1590 nM | GI50 [16] 3910 nM | GI50 [17] 1660 nM | GI50 [18] 694 nM | GI50 [19] 755 nM | GI50 [21] 1120 nM | GI50 [23] 1240 nM | GI50 [24] 12200 nM | GI50 [25] 528 nM | GI50 [26] 1040 nM | GI50 [27] 770 nM | GI50 [29] 2720 nM | GI50 [31] 698 nM | GI50 [32] 871 nM | GI50 [33] 1960 nM | GI50 [34] 3730 nM | GI50 [35] 2350 nM | GI50 [36] 821 nM | GI50 [37] 489 nM | GI50 [38] 486 nM | GI50 [39] 1510 nM | GI50 [40] 1320 nM | GI50 [41] 875 nM | GI50 [42] 572 nM | GI50 [43] 3800 nM | GI50 [44] 1410 nM | GI50 [45] 741 nM | GI50 [46] 5440 nM | GI50 [47] 1530 nM | GI50 [48] 1160 nM | GI50 [49] 893 nM | GI50 [51] 741 nM | GI50 [52] 2960 nM | GI50 [53] 5950 nM | GI50 [54] 557 nM | GI50 [55] 6660 nM | GI50 [56] 644 nM | GI50 [57] 1450 nM
2690 nM: TGI [50]
> 53800 nM: TGI [29]
3160 nM: TGI [45]
> 32900 nM: TGI [30]
active: GI50 [12] 232 nM | GI50 [13] 168 nM | GI50 [20] 242 nM | GI50 [22] 300 nM | GI50 [28] 314 nM | GI50 [30] 288 nM | GI50 [50] 151 nM
5720 nM: TGI [42]
> 100000 nM: TGI [1] | TGI [3] | TGI [4] | TGI [6] | TGI [7] | TGI [8] | TGI [9] | TGI [10] | TGI [11] | TGI [12] | TGI [13] | TGI [15] | TGI [16] | TGI [19] | TGI [20] | TGI [21] | TGI [23] | TGI [24] | TGI [25] | TGI [26] | TGI [28] | TGI [33] | TGI [34] | TGI [35] | TGI [36] | TGI [37] | TGI [40] | TGI [44] | TGI [46] | TGI [47] | TGI [48] | TGI [51] | TGI [52] | TGI [53] | TGI [54] | TGI [55] | TGI [56] | TGI [57]
7230 nM: TGI [27]
> 30000 nM: TGI [32]
> 29700 nM: TGI [43]
> 31100 nM: TGI [17]
